Assay results as given in ChEMBL document CHEMBL4616649, “Genomics-Metabolomics Profiling Disclosed Marine Vibrio spartinae 3.6 as a Producer of a New Branched Side Chain Prodigiosin” (2020).

What was measured:
Type in all cases: functional
[1] = tested on: Stenotrophomonas maltophilia; experiment: Antibacterial activity against Stenotrophomonas maltophilia ATCC 13636 assessed as reduction in microbial growth after 20 hrs by microdilution method; conditions: ATCC 13636, 20 h
[2] = tested on: Stenotrophomonas maltophilia; experiment: Antibacterial activity against Stenotrophomonas maltophilia ATCC 13637 assessed as reduction in microbial growth after 20 hrs by microdilution method; conditions: ATCC 13637, 20 h
[3] = tested on: Staphylococcus aureus; experiment: Antibacterial activity against Staphylococcus aureus 6538P assessed as reduction in microbial growth after 20 hrs by microdilution method
[4] = tested on: Staphylococcus aureus; experiment: Antibacterial activity against Staphylococcus aureus ATCC 23235 assessed as reduction in microbial growth after 20 hrs by microdilution method; conditions: ATCC 23235, 20 h
[5] = tested on: Stenotrophomonas maltophilia; experiment: Antibacterial activity against Stenotrophomonas maltophilia ATCC 700475 assessed as reduction in microbial growth after 20 hrs by microdilution method; conditions: ATCC 700475, 20 h
[6] = tested on: Staphylococcus epidermidis; experiment: Antibacterial activity against Staphylococcus epidermidis ATCC 35984 assessed as reduction in microbial growth after 20 hrs by microdilution method; conditions: ATCC 35984, 20 h
[7] = tested on: Staphylococcus aureus; experiment: Antibacterial activity against Staphylococcus aureus ATCC 29213 assessed as reduction in microbial growth after 20 hrs by microdilution method; conditions: ATCC 29213, 20 h
[8] = tested on: Listeria monocytogenes; experiment: Antibacterial activity against Listeria monocytogenes MB677 assessed as reduction in microbial growth after 20 hrs by microdilution method; conditions: MB677, 20 h

SMILES | MIC [1] | MIC50 [1] | MIC [2] | MIC50 [2] | MIC [3] | MIC50 [3] | MIC [4] | MIC50 [4] | MIC [5] | MIC50 [5] | MIC [6] | MIC50 [6] | MIC [7] | MIC50 [7] | MIC [8] | MIC50 [8]
CCCCCC1=C/C(=C\c2[nH]c(-c3ccc[nH]3)cc2OC)N=C1C | 1.7 µg/mL | 0.13 µg/mL | 1.7 µg/mL | 0.66 µg/mL | 1.7 µg/mL | 0.04 µg/mL | 1.3 µg/mL | 0.06 µg/mL | 2.7 µg/mL | 0.5 µg/mL | 2 µg/mL | 0.33 µg/mL | 3.3 µg/mL | 0.05 µg/mL | 1.7 µg/mL | 0.16 µg/mL
COc1cc(-c2ccc[nH]2)[nH]c1/C=C1/C=C(CCCCC(C)C)C(C)=N1 | 27 µg/mL | 3.3 µg/mL | 27 µg/mL | 3.3 µg/mL | 21 µg/mL | 0.2 µg/mL | 21 µg/mL | 0.5 µg/mL | 27 µg/mL | 4 µg/mL | 27 µg/mL | 2.7 µg/mL | 27 µg/mL | 0.5 µg/mL | 21 µg/mL | 3.3 µg/mL
COc1cc(-c2ccc[nH]2)[nH]c1/C=C1\N=C(C)C2=C1C(C)CCC2 (stereo not drawn) | 3.3 µg/mL | 1 µg/mL | 3.3 µg/mL | 2 µg/mL | 3.3 µg/mL | 0.05 µg/mL | 3.3 µg/mL | 0.08 µg/mL | 5.3 µg/mL | 1.7 µg/mL | 3.3 µg/mL | 0.5 µg/mL | 4 µg/mL | 0.06 µg/mL | 4 µg/mL | 0.4 µg/mL
CC1(C)S[C@@H]2[C@H](NC(=O)[C@H](N)c3ccccc3)C(=O)N2[C@H]1C(=O)O [AMPICILLIN] |  |  |  |  |  |  |  |  |  |  |  |  |  |  | 0.8 µg/mL | 
O=C(N[C@H](CO)[C@H](O)c1ccc([N+](=O)[O-])cc1)C(Cl)Cl [CHLORAMPHENICOL] | 4 µg/mL |  | 3.3 µg/mL |  |  |  |  |  | 4 µg/mL |  |  |  |  |  |  | 
CN[C@H](CC(C)C)C(=O)N[C@H]1C(=O)N[C@@H](CC(N)=O)C(=O)N[C@H]2C(=O)N[C@H]3C(=O)N[C@H](C(=O)N[C@H](C(=O)O)c4cc(O)cc(O)c4-c4cc3ccc4O)[C@H](O)c3ccc(c(Cl)c3)Oc3cc2cc(c3O[C@@H]2O[C@H](CO)[C@@H](O)[C@H](O)[C@H]2O[C@H]2C[C@](C)(N)[C@H](O)[C@H](C)O2)Oc2ccc(cc2Cl)[C@H]1O [VANCOMYCIN] |  |  |  |  | 1.7 µg/mL |  |  |  |  |  |  |  |  |  |  | 
